Legend:
SD rats = experiment: Heritability test of F1 phenodeviant rats bred to SD rats; type: in vivo, rat
Description: (§1) ENU mutagenesis rat protocol: Pathogen-free inbred Wistar Furth (WF), inbred Fischer-344 (F344) and outbred Sprague Dawley (SD) male and female rats were obtained from Harlan Sprague Dawley, Inc. (Indianapolis, Ind.). All rats were given Teklad Lab Blox chow (Harlan Teklad, Madison, Wis.), acidified water ad libitum, and were housed under a 12-h light/12-h dark cycle. After a one week acclimation period, nine-week-old male rats were administered ENU as a single intraperitoneal injection; for a split dose, rats were injected with ENU once at 9 weeks of age and again at 10 weeks of age. One gram of ENU (Sigma) was dissolved in 10 mls of 95% ethanol and then diluted with 90 mls of phosphate citrate buffer prior to injection. All injections of ENU were given in the morning hours. To characterize the effect of ENU treatment on fertility in the various rat strains, mutagenized males were paired with untreated females of the same strain for consecutive 2-3 week periods, beginning 3-5 weeks after the first ENU treatment and continuing a minimum of 26 weeks post-ENU. We observed female rats for vaginal plugs, gross pregnancy and date of birth/size of litters. For our phenotypic mutant (phenodeviant) rat screening experiments, ENU-treated SD male rats were bred with SD female rats and all F1 pups were visually checked for gross abnormalities in physical development or behavior as compared to littermates at least twice prior to weaning at approximately 21 days of age. A subset of the F1 phenodeviant rats identified was bred to SD rats to determine inheritance of the observed phenotypic mutation. Several of the heritable phenodeviant rat lines are currently being maintained and backcrossed to eliminate residual ENU-induced genetic changes not associated with the phenotypic mutation.
Phenodeviant rat production: Multiple ENU dosing protocols in the SD rat strain determine their germline mutagenic potential by breeding ENU-treated SD males to females of the same strain to produce F1 offspring. These pups were examined for readily observable physical or behavioral abnormalities. Phenodeviants were identified at all doses listed in Table 2 with a variety of abnormalities observed. Phenodeviant F1 pups were born at various times between 6-52 weeks post-ENU treatment of male founders. The most frequent abnormalities visually identified were those of the eyes, tail, and growth. […] Selected phenodeviant rat F1 pups were maintained and bred to determine the heritability of the physical abnormalities (Table 3). […] These abnormalities were diverse (Table 4).

male rats (SD, F344, WF) = experiment: Effects of ENU treatment on male rat fertility (breeding to same-strain females); type: in vivo; settings: for % fertile males: weeks 7-26 post-ENU
Description: as §1
Optimization of ENU dosages: We examined several rat strains, inbred WF and F344 rats and outbred SD rats in which groups of male rats were given either single or split doses of ENU. These male rats were then bred to same-strain female rats at various times post-ENU to test for fertility (Table 1). The three rat strains were unable to regain fertility following large doses of ENU. The WF strain was extremely sensitive to ENU-induced sterility. […] The SD and F344 strains responded in a similar manner with maximum ENU doses of 100-150 mg/kg, allowing for some percentage of rats to remain fertile or recover fertility; however, the F344 strain was more sensitive to split dose protocols compared to the SD rats. […] This phenomenon was also true for the both the F344 and WF rat strains. […] It also appears from the SD and F344 fertility data shown in Table 1 that these rat strains were more likely to remain fertile or regain fertility following a split dose of ENU versus a single dose when the total dose exposure was equal. In addition, average litter size was reduced in both the SD and F344 strains around weeks 1-9 post-ENU (data not shown), the same time period in which we observed reduced fertility in the ENU-treated males.

Compound: CCN(N=O)C(N)=O [ENU, N-ethyl-N-nitrosourea]
- ENU-induced heritable phenotype, observed phenotype (SD rats; Line 18, F1 founder female, initial ENU dose 2 × 60 mg/kg): crooked tail & slit eyes
- Heritable phenotype confirmed in multiple litters (SD rats; Line 18, initial ENU dose 2 × 60 mg/kg): yes
- ENU-induced heritable phenotype, observed phenotype (SD rats; Line 19, F1 founder male, initial ENU dose 2 × 50 mg/kg): growth on tail
- Heritable phenotype confirmed in multiple litters (SD rats; Line 19, initial ENU dose 2 × 50 mg/kg): yes
- ENU-induced heritable phenotype, observed phenotype (SD rats; Line 28, F1 founder female, initial ENU dose 2 × 60 mg/kg): red ring eyes
- Heritable phenotype confirmed in multiple litters (SD rats; Line 28, initial ENU dose 2 × 60 mg/kg): yes
- ENU-induced heritable phenotype, observed phenotype (SD rats; Line 29, F1 founder female, initial ENU dose 2 × 60 mg/kg): oblong face
- Heritable phenotype confirmed in multiple litters (SD rats; Line 29, initial ENU dose 2 × 60 mg/kg): yes
- ENU-induced heritable phenotype, observed phenotype (SD rats; Line 32, F1 founder female, initial ENU dose 2 × 60 mg/kg): slit eyes
- Heritable phenotype confirmed in multiple litters (SD rats; Line 32, initial ENU dose 2 × 60 mg/kg): yes
- ENU-induced heritable phenotype, observed phenotype (SD rats; Line 38, F1 founder male, initial ENU dose 2 × 60 mg/kg): curved tail
- Heritable phenotype confirmed in multiple litters (SD rats; Line 38, initial ENU dose 2 × 60 mg/kg): yes
- ENU-induced heritable phenotype, observed phenotype (SD rats; Line 42, F1 founder female, initial ENU dose 2 × 60 mg/kg): bald spots
- Heritable phenotype confirmed in multiple litters (SD rats; Line 42, initial ENU dose 2 × 60 mg/kg): yes
- ENU-induced heritable phenotype, observed phenotype (SD rats; Line 60, F1 founder female, initial ENU dose 2 × 60 mg/kg): scaly skin
- Heritable phenotype confirmed in multiple litters (SD rats; Line 60, initial ENU dose 2 × 60 mg/kg, only one litter to date): no^a
- ENU-induced heritable phenotype, observed phenotype (SD rats; Line 61, F1 founder male, initial ENU dose 2 × 60 mg/kg): swollen feet
- Heritable phenotype confirmed in multiple litters (SD rats; Line 61, initial ENU dose 2 × 60 mg/kg, only one litter to date): no^a
- Heritable phenotype confirmed in multiple litters (SD rats; Line 63, initial ENU dose 2 × 60 mg/kg): yes
- # phenodeviants heritable (SD rats; SD, ENU dose 100 mg/kg): 0
- # phenodeviants non-heritable (SD rats; SD, ENU dose 100 mg/kg): 4
- # phenodeviants unknown (sterile, not evaluated, being evaluated or died) (SD rats; SD, ENU dose 100 mg/kg): 4
- # phenodeviants heritable (SD rats; SD, ENU dose 120 mg/kg): 0
- # phenodeviants non-heritable (SD rats; SD, ENU dose 120 mg/kg): 2
- # phenodeviants unknown (sterile, not evaluated, being evaluated or died) (SD rats; SD, ENU dose 120 mg/kg): 1
- # phenodeviants heritable (SD rats; SD, ENU dose 2 × 50 mg/kg): 1
- # phenodeviants non-heritable (SD rats; SD, ENU dose 2 × 50 mg/kg): 4
- # phenodeviants unknown (sterile, not evaluated, being evaluated or died) (SD rats; SD, ENU dose 2 × 50 mg/kg): 2
- # phenodeviants heritable (SD rats; SD, ENU dose 2 × 60 mg/kg): 9
- # phenodeviants non-heritable (SD rats; SD, ENU dose 2 × 60 mg/kg): 9
- # phenodeviants unknown (sterile, not evaluated, being evaluated or died) (SD rats; SD, ENU dose 2 × 60 mg/kg): 61
- heritability of mutations in phenodeviants tested (SD rats; SD, single dose protocols): none of the six phenodeviant rats tested showed heritable mutations
- fertility of treated males (male rats (SD, F344, WF); F344, 75 mg/kg): All rats remained fertile
- rats that maintained fertility (male rats (SD, F344, WF); F344, 100 mg/kg given in either a single or split dose): about 60%
- % fertile males (male rats (SD, F344, WF); F344, single dose 75 mg/kg i.p.): 100%
- % fertile males (male rats (SD, F344, WF); F344, single dose 100 mg/kg i.p.): 67%
- % fertile males (male rats (SD, F344, WF); F344, single dose 120 mg/kg i.p.): 0%
- % fertile males (male rats (SD, F344, WF); F344, split dose 2 × 50 mg/kg): 60%
- % fertile males (male rats (SD, F344, WF); F344, split dose 2 × 60 mg/kg): 40%
- % fertile males (male rats (SD, F344, WF); F344, split dose 2 × 75 mg/kg): 0%
- % fertile males (male rats (SD, F344, WF); F344, split dose 2 × 100 mg/kg): 0%
- maximum ENU doses allowing some percentage of rats to remain fertile or recover fertility (male rats (SD, F344, WF); SD and F344 strains): 100 to 150 mg/kg
- average litter size (male rats (SD, F344, WF); SD and F344 strains, around weeks 1-9 post-ENU (data not shown)): reduced
- % fertile males (male rats (SD, F344, WF); SD, single dose 75 mg/kg i.p.): 100%
- % fertile males (male rats (SD, F344, WF); SD, single dose 100 mg/kg i.p.): 80%
- % fertile males (male rats (SD, F344, WF); SD, single dose 120 mg/kg i.p.): 33%
- % fertile males (male rats (SD, F344, WF); SD, single dose 150 mg/kg i.p.): 0%
- % fertile males (male rats (SD, F344, WF); SD, single dose 200 mg/kg i.p.): 0%
- fertility of treated males (male rats (SD, F344, WF); SD, split dose 2×50 mg/kg or 2×60 mg/kg, after a brief recovery period): fully fertile
- % fertile males (male rats (SD, F344, WF); SD, split dose 2 × 50 mg/kg): 100%
- % fertile males (male rats (SD, F344, WF); SD, split dose 2 × 60 mg/kg): 100%
- % fertile males (male rats (SD, F344, WF); SD, split dose 2 × 75 mg/kg): 20%
- % fertile males (male rats (SD, F344, WF); SD, split dose 2 × 100 mg/kg): 0%
- maximum total dose after which fertile males were obtained (male rats (SD, F344, WF); WF strain): 50 mg/kg
- male rats permanently sterilized (male rats (SD, F344, WF); WF, 25 mg/kg single injection): approximately 70%
- % fertile males (male rats (SD, F344, WF); WF, single dose 25 mg/kg i.p.): 30%
- % fertile males (male rats (SD, F344, WF); WF, single dose 35 mg/kg i.p.): 33%
- % fertile males (male rats (SD, F344, WF); WF, single dose 50 mg/kg i.p.): 25%
- % fertile males (male rats (SD, F344, WF); WF, single dose 75 mg/kg i.p.): 0%
- % fertile males (male rats (SD, F344, WF); WF, single dose 100 mg/kg i.p.): 0%
- % fertile males (male rats (SD, F344, WF); WF, split dose 2 × 15 mg/kg): 17%
- % fertile males (male rats (SD, F344, WF); WF, split dose 2 × 25 mg/kg): 17%
- % fertile males (male rats (SD, F344, WF); WF, split dose 2 × 50 mg/kg): 0%
- % fertile males (male rats (SD, F344, WF); WF, split dose 2 × 75 mg/kg): 0%
